Experimental data reported in ChEMBL document CHEMBL1649133, “In vitro comparison of the efficacies of natamycin and silver nitrate against ocular fungi” (2009).
In brackets after ≈: the same amount, converted by molar mass.

Legend:
Assay type in all cases: functional
Aspergillus niger = assay: Antifungal activity against 0.4x10'4 to 5x10^4 CFU/ml Aspergillus niger after 48 hrs by CLSI M38-A broth microdilution method
Fusarium verticillioides = assay: Antifungal activity against 0.4x10'4 to 5x10^4 CFU/ml Fusarium moniliforme after 48 hrs by CLSI M38-A broth microdilution method
Aspergillus flavus = assay: Antifungal activity against 0.4x10'4 to 5x10^4 CFU/ml Aspergillus flavus after 48 hrs by CLSI M38-A broth microdilution method
Fusarium avenaceum = assay: Antifungal activity against 0.4x10'4 to 5x10^4 CFU/ml Fusarium avenaceum after 48 hrs by CLSI M38-A broth microdilution method
Fusarium solani = assay: Antifungal activity against 0.4x10'4 to 5x10^4 CFU/ml Fusarium solani after 48 hrs by CLSI M38-A broth microdilution method
Fusarium poae = assay: Antifungal activity against 0.4x10'4 to 5x10^4 CFU/ml Fusarium poae after 48 hrs by CLSI M38-A broth microdilution method
Fusarium oxysporum = assay: Antifungal activity against 0.4x10'4 to 5x10^4 CFU/ml Fusarium oxysporum after 48 hrs by CLSI M38-A broth microdilution method
Aspergillus oryzae = assay: Antifungal activity against 0.4x10'4 to 5x10^4 CFU/ml Aspergillus oryzae after 48 hrs by CLSI M38-A broth microdilution method
Fusarium sp. = assay: Antifungal activity against 0.4x10'4 to 5x10^4 CFU/ml Fusarium sp. after 48 hrs by CLSI M38-A broth microdilution method
Aspergillus versicolor = assay: Antifungal activity against 0.4x10'4 to 5x10^4 CFU/ml Aspergillus versicolor after 48 hrs by CLSI M38-A broth microdilution method
Aspergillus sp. = assay: Antifungal activity against 0.4x10'4 to 5x10^4 CFU/ml Aspergillus sp. after 48 hrs by CLSI M38-A broth microdilution method
Aspergillus fumigatus = assay: Antifungal activity against 0.4x10'4 to 5x10^4 CFU/ml Aspergillus fumigatus after 48 hrs by CLSI M38-A broth microdilution method

MIC (Aspergillus niger): 0.25 µg/mL (≈ 0.376 µM)
MIC (Fusarium verticillioides): 4 µg/mL (≈ 6.01 µM)
MIC50 (Fusarium verticillioides): 4 µg/mL (≈ 6.01 µM)
MIC90 (Fusarium verticillioides): 8 µg/mL (≈ 12 µM)
MIC50 (Aspergillus flavus): 32 µg/mL (≈ 48.1 µM)
MIC90 (Aspergillus flavus): 32 µg/mL (≈ 48.1 µM)
MIC50 (Fusarium avenaceum): 8 µg/mL (≈ 12 µM)
MIC90 (Fusarium avenaceum): 8 µg/mL (≈ 12 µM)
MIC (Fusarium solani): 4 µg/mL (≈ 6.01 µM)
MIC50 (Fusarium solani): 4 µg/mL (≈ 6.01 µM)
MIC90 (Fusarium solani): 8 µg/mL (≈ 12 µM)
MIC (Fusarium poae): 4 µg/mL (≈ 6.01 µM)
MIC (Fusarium oxysporum): 4 µg/mL (≈ 6.01 µM)
MIC50 (Aspergillus oryzae): 32 µg/mL (≈ 48.1 µM)
MIC90 (Aspergillus oryzae): 32 µg/mL (≈ 48.1 µM)
MIC (Fusarium sp.): 4 µg/mL (≈ 6.01 µM)
MIC50 (Fusarium sp.): 4 µg/mL (≈ 6.01 µM)
MIC90 (Fusarium sp.): 8 µg/mL (≈ 12 µM)
MIC50 (Aspergillus versicolor): 8 µg/mL (≈ 12 µM)
MIC90 (Aspergillus versicolor): 32 µg/mL (≈ 48.1 µM)
MIC50 (Aspergillus sp.): 32 µg/mL (≈ 48.1 µM)
MIC90 (Aspergillus sp.): 32 µg/mL (≈ 48.1 µM)
MIC (Aspergillus fumigatus): 4 µg/mL (≈ 6.01 µM)
MIC50 (Aspergillus fumigatus): 4 µg/mL (≈ 6.01 µM)
MIC90 (Aspergillus fumigatus): 4 µg/mL (≈ 6.01 µM)
Compound: C[C@@H]1C/C=C/C=C/C=C/C=C/[C@H](O[C@@H]2O[C@H](C)[C@@H](O)[C@H](N)[C@@H]2O)C[C@@H]2O[C@](O)(C[C@@H](O)C[C@H]3O[C@@H]3/C=C/C(=O)O1)C[C@H](O)[C@H]2C(=O)O [NATAMYCIN]
